Experimental data published in PubChem BioAssay (NCI).
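Briefly, cells in 96-well plates were exposed to five compound concentrations for 48 h, and endpoints were estimated by linear interpolation. TGI is the concentration that stops growth completely.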

Legend:
Assay in all cases: NCI anticancer screen, dose series, 48 h
HCT-116 colon = tested on: HCT-116 colon
SK-MEL-28 melanoma = tested on: SK-MEL-28 melanoma
SW-620 colon = tested on: SW-620 colon
NCI-H460 lung = tested on: NCI-H460 lung
SF-539 CNS = tested on: SF-539 CNS
SNB-75 CNS = tested on: SNB-75 CNS
UO-31 renal = tested on: UO-31 renal
NCI-H226 lung = tested on: NCI-H226 lung
OVCAR-5 ovarian = tested on: OVCAR-5 ovarian
A549 NSCLC = tested on: A549 NSCLC
HL-60(TB) leukemia = tested on: HL-60(TB) leukemia
UACC-62 melanoma = tested on: UACC-62 melanoma
HCC-2998 colon = tested on: HCC-2998 colon
SR leukemia = tested on: SR leukemia
SK-OV-3 ovarian = tested on: SK-OV-3 ovarian
COLO 205 colon = tested on: COLO 205 colon
SF-268 CNS = tested on: SF-268 CNS
TK-10 renal = tested on: TK-10 renal
BT-549 breast = tested on: BT-549 breast
SF-295 CNS = tested on: SF-295 CNS
HS 578T breast = tested on: HS 578T breast
LOX IMVI melanoma = tested on: LOX IMVI melanoma
U251 CNS = tested on: U251 CNS
M14 melanoma = tested on: M14 melanoma
MDA-N = tested on: MDA-N
HT29 colon = tested on: HT29 colon
OVCAR-8 ovarian = tested on: OVCAR-8 ovarian
OVCAR-3 ovarian = tested on: OVCAR-3 ovarian
NCI-H23 lung = tested on: NCI-H23 lung
ACHN renal = tested on: ACHN renal
MALME-3M melanoma = tested on: MALME-3M melanoma
SN12C renal = tested on: SN12C renal
RPMI-8226 leukemia = tested on: RPMI-8226 leukemia
SNB-19 CNS = tested on: SNB-19 CNS
RXF 393 renal = tested on: RXF 393 renal
SK-MEL-5 melanoma = tested on: SK-MEL-5 melanoma
MDA-MB-231 breast = tested on: MDA-MB-231 breast
SK-MEL-2 melanoma = tested on: SK-MEL-2 melanoma
OVCAR-4 ovarian = tested on: OVCAR-4 ovarian
CAKI-1 renal = tested on: CAKI-1 renal
PC-3 prostate = tested on: PC-3 prostate
MOLT-4 leukemia = tested on: MOLT-4 leukemia
T-47D breast = tested on: T-47D breast
IGROV1 ovarian = tested on: IGROV1 ovarian
UACC-257 melanoma = tested on: UACC-257 melanoma
DU-145 prostate = tested on: DU-145 prostate
MDA-MB-435 = tested on: MDA-MB-435
CCRF-CEM leukemia = tested on: CCRF-CEM leukemia
K-562 leukemia = tested on: K-562 leukemia
HOP-92 NSCLC = tested on: HOP-92 NSCLC
NCI/ADR-RES ovarian = tested on: NCI/ADR-RES ovarian
KM12 colon = tested on: KM12 colon
HCT-15 colon = tested on: HCT-15 colon
HOP-62 NSCLC = tested on: HOP-62 NSCLC
EKVX NSCLC = tested on: EKVX NSCLC
786-0 renal = tested on: 786-0 renal
MCF7 breast = tested on: MCF7 breast
A498 renal = tested on: A498 renal

`O=C(Nc1ccccc1)OCCN=c1c2ccccc2ccc2ccccc12` showed a TGI (HCT-116 colon) of 35.9 µM, a TGI (SK-MEL-28 melanoma) of 60.9 µM and a TGI (SW-620 colon) of over 100 µM. For the same compound, the TGI (NCI-H460 lung) was 59.1 µM, the TGI (SF-539 CNS) was 37 µM and the TGI (SNB-75 CNS) was 80.9 µM. The TGI (UO-31 renal) was 39.9 µM, the TGI (NCI-H226 lung) was 57.1 µM and the TGI (OVCAR-5 ovarian) was over 100 µM. The TGI (A549 NSCLC) was over 100 µM, the TGI (HL-60(TB) leukemia) was 44.9 µM and the TGI (UACC-62 melanoma) was 49.1 µM. The TGI (HCC-2998 colon) was 25.1 µM, the TGI (SR leukemia) was 54.5 µM and the TGI (SK-OV-3 ovarian) was over 100 µM. For the same compound, the TGI (COLO 205 colon) was 51.4 µM, the TGI (SF-268 CNS) was over 100 µM and the TGI (TK-10 renal) was over 100 µM. For the same compound, the TGI (BT-549 breast) was 34.1 µM, the TGI (SF-295 CNS) was 39 µM and the TGI (HS 578T breast) was 51.3 µM. The TGI (LOX IMVI melanoma) was 44.5 µM, the TGI (U251 CNS) was 69.9 µM and the TGI (M14 melanoma) was 40.8 µM. It also gave a TGI (MDA-N) of 39 µM, a TGI (HT29 colon) of 38.8 µM and a TGI (OVCAR-8 ovarian) of 84 µM. For the same compound, the TGI (OVCAR-3 ovarian) was 44.2 µM, the TGI (NCI-H23 lung) was over 100 µM and the TGI (ACHN renal) was 61.8 µM. For the same compound, the TGI (MALME-3M melanoma) was 46 µM, the TGI (SN12C renal) was over 100 µM and the TGI (RPMI-8226 leukemia) was 42.2 µM. It also gave a TGI (SNB-19 CNS) of 62.7 µM, a TGI (RXF 393 renal) of 75.9 µM and a TGI (SK-MEL-5 melanoma) of 31.2 µM. It also gave a TGI (MDA-MB-231 breast) of over 100 µM, a TGI (SK-MEL-2 melanoma) of 29.1 µM and a TGI (OVCAR-4 ovarian) of over 100 µM. It also gave a TGI (CAKI-1 renal) of 90.6 µM, a TGI (PC-3 prostate) of 49.4 µM and a TGI (MOLT-4 leukemia) of 42.6 µM. It also gave a TGI (T-47D breast) of 43.5 µM, a TGI (IGROV1 ovarian) of over 100 µM and a TGI (UACC-257 melanoma) of 42.2 µM. The TGI (DU-145 prostate) was over 100 µM, the TGI (MDA-MB-435) was 79.6 µM and the TGI (CCRF-CEM leukemia) was 50.4 µM. It also gave a TGI (K-562 leukemia) of 51.1 µM, a TGI (HOP-92 NSCLC) of 53.2 µM and a TGI (NCI/ADR-RES ovarian) of 65.9 µM. The TGI (KM12 colon) was 44.4 µM, the TGI (HCT-15 colon) was over 100 µM and the TGI (HOP-62 NSCLC) was over 100 µM. It also gave a TGI (EKVX NSCLC) of 92.4 µM and a TGI (786-0 renal) of over 100 µM.

`O=[N+]([O-])C(C(Cl)=C(Cl)Cl)=C(N1CCCCC1)N1CCCCC1` showed a TGI (HCT-116 colon) of over 100 µM, a TGI (SK-MEL-28 melanoma) of over 100 µM and a TGI (SW-620 colon) of over 100 µM. It also gave a TGI (NCI-H460 lung) of over 100 µM, a TGI (SF-539 CNS) of over 100 µM and a TGI (SNB-75 CNS) of over 100 µM. It also gave a TGI (UO-31 renal) of over 100 µM, a TGI (NCI-H226 lung) of over 100 µM and a TGI (OVCAR-5 ovarian) of over 100 µM. The TGI (A549 NSCLC) was over 100 µM, the TGI (HL-60(TB) leukemia) was over 100 µM and the TGI (UACC-62 melanoma) was over 100 µM. The TGI (HCC-2998 colon) was over 100 µM, the TGI (SR leukemia) was over 100 µM and the TGI (SK-OV-3 ovarian) was over 100 µM. For the same compound, the TGI (COLO 205 colon) was over 100 µM, the TGI (SF-268 CNS) was over 100 µM and the TGI (TK-10 renal) was over 100 µM. For the same compound, the TGI (BT-549 breast) was over 100 µM, the TGI (SF-295 CNS) was over 100 µM and the TGI (HS 578T breast) was 70.8 µM. The TGI (LOX IMVI melanoma) was over 100 µM, the TGI (U251 CNS) was over 100 µM and the TGI (M14 melanoma) was over 100 µM. For the same compound, the TGI (MDA-N) was over 100 µM, the TGI (HT29 colon) was over 100 µM and the TGI (OVCAR-8 ovarian) was over 100 µM. The TGI (OVCAR-3 ovarian) was over 100 µM, the TGI (NCI-H23 lung) was over 100 µM and the TGI (ACHN renal) was over 100 µM. For the same compound, the TGI (MALME-3M melanoma) was over 100 µM, the TGI (SN12C renal) was over 100 µM and the TGI (RPMI-8226 leukemia) was over 100 µM. It also gave a TGI (MCF7 breast) of over 100 µM, a TGI (SNB-19 CNS) of over 100 µM and a TGI (RXF 393 renal) of over 100 µM. The TGI (A498 renal) was over 100 µM, the TGI (SK-MEL-5 melanoma) was over 100 µM and the TGI (MDA-MB-231 breast) was over 100 µM. For the same compound, the TGI (OVCAR-4 ovarian) was over 100 µM, the TGI (CAKI-1 renal) was over 100 µM and the TGI (PC-3 prostate) was over 100 µM. It also gave a TGI (MOLT-4 leukemia) of over 100 µM, a TGI (T-47D breast) of over 100 µM and a TGI (IGROV1 ovarian) of over 100 µM. The TGI (UACC-257 melanoma) was over 100 µM, the TGI (DU-145 prostate) was over 100 µM and the TGI (CCRF-CEM leukemia) was over 100 µM. It also gave a TGI (K-562 leukemia) of over 100 µM, a TGI (NCI/ADR-RES ovarian) of over 100 µM and a TGI (KM12 colon) of over 100 µM. The TGI (HCT-15 colon) was over 100 µM, the TGI (HOP-62 NSCLC) was over 100 µM and the TGI (EKVX NSCLC) was over 100 µM. It also gave a TGI (786-0 renal) of over 100 µM.
